Measurements reported in the NIST ThermoML archive (doi:10.1016/j.jct.2012.09.016).
± gives the expanded uncertainty stated by the source.

How the values were obtained:
[1] = Liquid, Vibrating tube method
[2] = molar heat capacity at constant pressure; conditions: Liquid, Small sample (50 mg) DSC

CCCCCCN [1-hexanamine]
Conditions	mass density, [1] [kg/m3]	molar heat capacity at constant pressure, [2] [J/K/mol]
313.15 K, 100 kPa	–	253.5 ± 4.4
313.15 K, 20000 kPa	–	251 ± 4.3
313.15 K, 40000 kPa	–	250.1 ± 4.3
313.15 K, 60000 kPa	–	248.9 ± 4.3
323.15 K, 100 kPa	–	253.7 ± 4.4
323.15 K, 20000 kPa	–	251.5 ± 4.4
323.15 K, 40000 kPa	–	250.5 ± 4.3
323.15 K, 60000 kPa	–	249.3 ± 4.3
333.15 K, 100 kPa	–	254.4 ± 4.4
333.15 K, 20000 kPa	–	252.4 ± 4.4
333.15 K, 40000 kPa	–	251.2 ± 4.4
333.15 K, 60000 kPa	–	250.1 ± 4.3
343.15 K, 100 kPa	–	255.7 ± 4.4
343.15 K, 20000 kPa	–	253.6 ± 4.4
343.15 K, 40000 kPa	–	252.3 ± 4.4
343.15 K, 60000 kPa	–	251.3 ± 4.4
353.15 K, 100 kPa	–	257.5 ± 4.5
353.15 K, 20000 kPa	–	255.2 ± 4.4
353.15 K, 40000 kPa	–	253.8 ± 4.4
353.15 K, 60000 kPa	–	252.8 ± 4.4
363.15 K, 100 kPa	–	259.8 ± 4.5
363.15 K, 20000 kPa	–	257.2 ± 4.5
363.15 K, 40000 kPa	–	255.6 ± 4.4
363.15 K, 60000 kPa	–	254.7 ± 4.4
373.15 K, 100 kPa	–	262.6 ± 4.5
373.15 K, 20000 kPa	–	259.6 ± 4.5
373.15 K, 40000 kPa	–	257.8 ± 4.5
373.15 K, 60000 kPa	–	256.9 ± 4.4
383.15 K, 20000 kPa	–	262.3 ± 4.5
383.15 K, 40000 kPa	–	260.3 ± 4.5
383.15 K, 60000 kPa	–	259.5 ± 4.5
383.15 K, 110000 kPa	768.3 ± 1.6	–
383.15 K, 120000 kPa	773.2 ± 1.7	–
383.15 K, 130000 kPa	777.7 ± 1.8	–
383.15 K, 140000 kPa	782 ± 1.9	–
393.15 K, 100 kPa	676.2 ± 0.3	–
393.15 K, 10000 kPa	689.2 ± 0.5	–
393.15 K, 20000 kPa	700.3 ± 0.6	265.3 ± 4.6
393.15 K, 30000 kPa	709.8 ± 0.7	–
393.15 K, 40000 kPa	718.4 ± 0.9	263.1 ± 4.6
393.15 K, 50000 kPa	726.6 ± 1	–
393.15 K, 60000 kPa	733.7 ± 1.1	262.4 ± 4.5
393.15 K, 70000 kPa	740.3 ± 1.2	–
393.15 K, 80000 kPa	746.5 ± 1.3	–
393.15 K, 90000 kPa	752.2 ± 1.4	–
393.15 K, 100000 kPa	757.7 ± 1.5	–
393.15 K, 110000 kPa	762.9 ± 1.6	–
393.15 K, 120000 kPa	767.8 ± 1.7	–
393.15 K, 130000 kPa	772.5 ± 1.8	–
393.15 K, 140000 kPa	776.9 ± 1.9	–
403.15 K, 100 kPa	666.9 ± 0.3	–
403.15 K, 10000 kPa	680.9 ± 0.5	–
403.15 K, 20000 kPa	692.5 ± 0.6	268.8 ± 4.7
403.15 K, 30000 kPa	702.8 ± 0.7	–
403.15 K, 40000 kPa	711.7 ± 0.9	266.4 ± 4.6
403.15 K, 50000 kPa	719.9 ± 1	–
403.15 K, 60000 kPa	727.2 ± 1.1	265.7 ± 4.6
403.15 K, 70000 kPa	734.1 ± 1.2	–
403.15 K, 80000 kPa	740.4 ± 1.4	–
403.15 K, 90000 kPa	746.5 ± 1.5	–
403.15 K, 100000 kPa	752.1 ± 1.6	–
403.15 K, 110000 kPa	757.4 ± 1.7	–
403.15 K, 120000 kPa	762.5 ± 1.8	–
403.15 K, 130000 kPa	767.2 ± 1.9	–
403.15 K, 140000 kPa	771.8 ± 2	–
